From patent EP4722207A1, “OXOISOINDOLINYL-SUBSTITUTED TETRAHYDROPYRIMIDINEDIONE DERIVATIVE AND USE THEREOF” (Gluetacs Therapeutics (Shanghai) Co., Ltd., priority 2023, dated 2024)

What was measured:
H292 = test: Cell viability assay (CellTiter-Meiluncell Luminescent), tumor cell proliferation, H292; settings: Homo sapiens, NCI-H292, 96 h; for inhibition at 0.01 µM: read-out: Inhibition Rate at 10 nM (%); for inhibition at 0.5 µM: read-out: Inhibition Rate at 500 nM (%)
Procedure: The tumor cells used herein were cultured in a cell culture medium listed in table 2 at 37°C in an incubator with 5% CO2. Prior to experimentation, all cell lines used were correctly identified by STR profiling, and tested negative for mycoplasma contamination using a mycoplasma detection kit through routine screenings.
On the following day, the test compounds of the present disclosure were subjected to serial dilution. […] Subsequently, 0.5 µL of the test compound dilution was transferred into the 96-well plate containing the cells, with each well containing 100 µL of cell culture medium. […] Into the 96-well plate, the diluted test compounds and corresponding detection reagents were added, resulting in final test compound concentrations of 500 nM and 10 nM, respectively. The experimental procedure is described below using the diluted 2 µM test compound as an example.
After the cells were treated with the compounds of the present disclosure for a specified period, the cell viability assay reagent was added to the culture medium according to the kit's instructions to determine cell viability. […] All controls were treated using the same procedure as the compounds of the present disclosure. The growth inhibition curves for the compounds of the present disclosure were plotted using Prism GraphPad software, and the IC50 values were calculated therefrom.

IKZF1 = target: T1, IKZF1 (Homo sapiens, UniProt Q13422+Q96SW2); test: Western-blot assay, substrate protein degradation in hPBMCs: IKZF1; assay type: cell-based; settings: 24 hours of compound treatment, 50 nM and 500 nM
T1 construct: effects of the compounds of the present disclosure on the expression of target proteins in cells; endogenous in cells; host or cells: human PBMCs (hPBMCs)
T1 sequence (Q13422 whole entry): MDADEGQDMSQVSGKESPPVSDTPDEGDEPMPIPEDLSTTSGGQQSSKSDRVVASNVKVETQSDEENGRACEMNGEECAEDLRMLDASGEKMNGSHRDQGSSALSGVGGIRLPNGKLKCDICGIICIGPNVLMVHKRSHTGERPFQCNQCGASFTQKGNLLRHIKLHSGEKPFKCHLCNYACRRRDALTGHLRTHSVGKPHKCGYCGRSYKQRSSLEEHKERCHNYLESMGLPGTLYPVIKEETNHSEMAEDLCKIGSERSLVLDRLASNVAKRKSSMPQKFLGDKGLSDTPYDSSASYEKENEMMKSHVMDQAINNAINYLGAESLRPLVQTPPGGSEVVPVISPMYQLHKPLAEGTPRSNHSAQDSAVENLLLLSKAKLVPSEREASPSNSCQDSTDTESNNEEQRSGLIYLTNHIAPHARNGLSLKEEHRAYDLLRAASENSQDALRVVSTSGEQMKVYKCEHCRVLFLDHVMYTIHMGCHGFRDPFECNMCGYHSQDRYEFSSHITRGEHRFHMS
T1 sequence (Q96SW2 whole entry): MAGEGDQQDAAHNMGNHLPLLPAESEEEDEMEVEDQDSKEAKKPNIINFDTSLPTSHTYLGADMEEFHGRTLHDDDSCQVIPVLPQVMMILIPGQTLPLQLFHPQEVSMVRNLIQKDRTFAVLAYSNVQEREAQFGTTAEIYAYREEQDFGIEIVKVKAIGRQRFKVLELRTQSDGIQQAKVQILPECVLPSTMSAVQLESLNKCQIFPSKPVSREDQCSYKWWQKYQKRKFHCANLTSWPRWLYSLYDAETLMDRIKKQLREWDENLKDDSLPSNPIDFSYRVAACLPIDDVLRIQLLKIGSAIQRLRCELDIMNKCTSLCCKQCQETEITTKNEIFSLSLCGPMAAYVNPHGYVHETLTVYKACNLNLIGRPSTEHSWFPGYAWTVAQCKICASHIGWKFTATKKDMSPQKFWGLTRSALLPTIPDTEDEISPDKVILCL
T1 sequence (Q16531 whole entry partner): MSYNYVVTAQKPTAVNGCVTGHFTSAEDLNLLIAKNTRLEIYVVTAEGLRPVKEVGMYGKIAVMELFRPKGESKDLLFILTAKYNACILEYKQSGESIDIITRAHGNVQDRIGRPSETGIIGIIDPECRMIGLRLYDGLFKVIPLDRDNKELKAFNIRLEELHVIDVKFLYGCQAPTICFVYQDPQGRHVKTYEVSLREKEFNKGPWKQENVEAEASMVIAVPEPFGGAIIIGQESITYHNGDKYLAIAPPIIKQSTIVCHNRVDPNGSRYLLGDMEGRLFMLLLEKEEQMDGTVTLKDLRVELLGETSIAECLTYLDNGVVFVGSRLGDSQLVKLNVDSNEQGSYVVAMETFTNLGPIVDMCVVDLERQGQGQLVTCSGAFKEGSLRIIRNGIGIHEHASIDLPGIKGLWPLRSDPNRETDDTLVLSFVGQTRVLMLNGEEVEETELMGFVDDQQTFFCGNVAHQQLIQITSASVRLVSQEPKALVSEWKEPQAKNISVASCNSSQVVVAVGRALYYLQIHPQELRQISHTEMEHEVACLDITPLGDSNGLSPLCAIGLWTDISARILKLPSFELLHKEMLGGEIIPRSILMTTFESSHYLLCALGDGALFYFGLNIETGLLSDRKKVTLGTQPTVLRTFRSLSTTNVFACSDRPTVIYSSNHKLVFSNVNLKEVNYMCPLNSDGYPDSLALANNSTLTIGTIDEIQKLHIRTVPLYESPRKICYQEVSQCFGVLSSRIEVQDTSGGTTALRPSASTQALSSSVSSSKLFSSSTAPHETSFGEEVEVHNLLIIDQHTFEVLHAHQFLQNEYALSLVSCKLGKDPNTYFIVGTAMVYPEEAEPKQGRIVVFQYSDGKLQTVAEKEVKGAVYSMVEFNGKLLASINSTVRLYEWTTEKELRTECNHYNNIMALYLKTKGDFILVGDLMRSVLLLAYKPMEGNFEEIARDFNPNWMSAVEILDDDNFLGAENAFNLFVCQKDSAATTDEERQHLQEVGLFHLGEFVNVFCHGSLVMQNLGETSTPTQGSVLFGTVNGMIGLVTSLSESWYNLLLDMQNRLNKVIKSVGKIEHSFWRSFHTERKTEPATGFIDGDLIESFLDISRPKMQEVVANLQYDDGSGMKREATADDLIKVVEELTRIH

IKZF2 = target: T2, IKZF2 (Homo sapiens, UniProt Q96SW2+Q9UKS7); test: Western-blot assay, substrate protein degradation in hPBMCs: IKZF2; assay type: cell-based; settings: 24 hours of compound treatment, 50 nM and 500 nM
T2 construct: effects of the compounds of the present disclosure on the expression of target proteins in cells; endogenous in cells; host or cells: human PBMCs (hPBMCs)

GSPT1 = target: T3, GSPT1 (Homo sapiens, UniProt P15170+Q96SW2); test: Western-blot assay, substrate protein degradation in hPBMCs: GSPT1; assay type: cell-based; settings: 24 hours of compound treatment, 50 nM and 500 nM
T3 construct: effects of the compounds of the present disclosure on the expression of target proteins in cells; endogenous in cells; host or cells: human PBMCs (hPBMCs)
T3 sequence (P15170 whole entry): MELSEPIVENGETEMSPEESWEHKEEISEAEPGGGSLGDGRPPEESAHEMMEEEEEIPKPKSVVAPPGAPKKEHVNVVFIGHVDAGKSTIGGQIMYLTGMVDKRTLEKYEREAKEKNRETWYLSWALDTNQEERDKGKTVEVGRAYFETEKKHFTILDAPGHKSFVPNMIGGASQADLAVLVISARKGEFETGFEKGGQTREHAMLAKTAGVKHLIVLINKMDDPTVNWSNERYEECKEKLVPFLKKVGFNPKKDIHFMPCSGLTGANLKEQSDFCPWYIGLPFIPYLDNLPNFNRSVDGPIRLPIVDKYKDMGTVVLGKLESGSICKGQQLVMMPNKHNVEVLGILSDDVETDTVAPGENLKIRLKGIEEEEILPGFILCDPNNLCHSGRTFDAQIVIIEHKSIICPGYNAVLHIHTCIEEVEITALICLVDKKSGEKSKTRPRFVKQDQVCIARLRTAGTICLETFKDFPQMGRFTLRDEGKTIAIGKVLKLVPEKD
T3 sequence (Q96SW2 whole entry): as the sequence (Q96SW2 whole entry) above
T3 sequence (Q16531 whole entry partner): as the sequence (Q16531 whole entry partner) above

IKZF3 = target: T4, IKZF3 (Homo sapiens, UniProt Q96SW2+Q9UKT9); test: Western-blot assay, substrate protein degradation in hPBMCs: IKZF3; assay type: cell-based; settings: 24 hours of compound treatment, 50 nM and 500 nM
T4 construct: effects of the compounds of the present disclosure on the expression of target proteins in cells; endogenous in cells; host or cells: human PBMCs (hPBMCs)
T4 sequence (Q9UKT9 whole entry): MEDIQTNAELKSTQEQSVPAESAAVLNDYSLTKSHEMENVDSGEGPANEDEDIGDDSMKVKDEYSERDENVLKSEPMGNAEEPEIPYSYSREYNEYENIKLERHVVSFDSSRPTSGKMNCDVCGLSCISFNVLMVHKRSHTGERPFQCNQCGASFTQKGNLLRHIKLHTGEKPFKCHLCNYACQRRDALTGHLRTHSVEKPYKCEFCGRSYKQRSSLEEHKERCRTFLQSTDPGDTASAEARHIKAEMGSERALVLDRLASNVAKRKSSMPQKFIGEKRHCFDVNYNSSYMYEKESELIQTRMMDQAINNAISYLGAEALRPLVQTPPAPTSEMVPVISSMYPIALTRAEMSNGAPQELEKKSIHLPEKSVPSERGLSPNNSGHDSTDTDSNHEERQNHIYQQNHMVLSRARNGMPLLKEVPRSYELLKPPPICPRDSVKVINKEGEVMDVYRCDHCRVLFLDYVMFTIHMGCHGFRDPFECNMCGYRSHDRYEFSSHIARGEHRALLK
T4 sequence (Q96SW2 whole entry): as the sequence (Q96SW2 whole entry) above
T4 sequence (Q16531 whole entry partner): as the sequence (Q16531 whole entry partner) above

CK1α = target: T5, CK1α (Homo sapiens, UniProt P48729+Q96SW2); test: Western-blot assay, substrate protein degradation in hPBMCs: CK1α; assay type: cell-based; settings: 24 hours of compound treatment, 50 nM and 500 nM
T5 construct: effects of the compounds of the present disclosure on the expression of target proteins in cells; endogenous in cells; host or cells: human PBMCs (hPBMCs)
T5 sequence (P48729 whole entry): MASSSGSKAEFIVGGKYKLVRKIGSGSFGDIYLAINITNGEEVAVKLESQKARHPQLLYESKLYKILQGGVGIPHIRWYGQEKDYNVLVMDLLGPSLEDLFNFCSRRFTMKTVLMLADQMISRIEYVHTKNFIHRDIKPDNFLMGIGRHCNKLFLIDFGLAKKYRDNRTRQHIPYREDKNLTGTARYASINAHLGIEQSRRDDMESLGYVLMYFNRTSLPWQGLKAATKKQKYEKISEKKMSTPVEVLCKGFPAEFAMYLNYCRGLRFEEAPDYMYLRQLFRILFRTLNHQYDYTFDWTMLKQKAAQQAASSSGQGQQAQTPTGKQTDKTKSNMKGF
T5 sequence (Q96SW2 whole entry): as the sequence (Q96SW2 whole entry) above
T5 sequence (Q16531 whole entry partner): as the sequence (Q16531 whole entry partner) above

WEE1 = target: T6, WEE1 (Homo sapiens, UniProt P30291+Q96SW2); test: Western-blot assay, substrate protein degradation in hPBMCs: WEE1; assay type: cell-based; settings: 24 hours of compound treatment, 50 nM and 500 nM
T6 construct: effects of the compounds of the present disclosure on the expression of target proteins in cells; endogenous in cells; host or cells: human PBMCs (hPBMCs)
T6 sequence (P30291 whole entry): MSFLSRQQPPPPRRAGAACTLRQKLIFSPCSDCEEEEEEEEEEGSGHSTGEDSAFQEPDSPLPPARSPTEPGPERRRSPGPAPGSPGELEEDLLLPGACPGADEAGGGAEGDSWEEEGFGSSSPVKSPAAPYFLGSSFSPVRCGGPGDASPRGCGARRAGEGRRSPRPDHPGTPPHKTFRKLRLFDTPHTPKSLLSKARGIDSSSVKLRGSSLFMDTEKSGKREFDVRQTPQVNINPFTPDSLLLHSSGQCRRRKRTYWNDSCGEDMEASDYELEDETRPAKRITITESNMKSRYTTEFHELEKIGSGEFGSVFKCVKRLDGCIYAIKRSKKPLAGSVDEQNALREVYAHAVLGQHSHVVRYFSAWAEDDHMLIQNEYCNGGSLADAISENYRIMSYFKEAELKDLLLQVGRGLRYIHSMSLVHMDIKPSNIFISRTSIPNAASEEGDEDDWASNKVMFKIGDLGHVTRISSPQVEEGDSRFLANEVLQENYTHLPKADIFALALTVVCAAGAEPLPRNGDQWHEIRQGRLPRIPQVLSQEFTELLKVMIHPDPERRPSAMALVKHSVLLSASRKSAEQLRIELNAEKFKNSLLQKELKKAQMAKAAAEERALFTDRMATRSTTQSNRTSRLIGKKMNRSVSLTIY
T6 sequence (Q96SW2 whole entry): as the sequence (Q96SW2 whole entry) above
T6 sequence (Q16531 whole entry partner): as the sequence (Q16531 whole entry partner) above

SMILES	inhibition at 0.01 µM (H292)	inhibition at 0.5 µM (H292)	substrate protein remaining % IKZF1 (IKZF1)	substrate protein remaining % IKZF2 (IKZF2)	substrate protein remaining % GSPT1 (GSPT1)	substrate protein remaining % IKZF3 (IKZF3)	substrate protein remaining % CK1α (CK1α)	substrate protein remaining % WEE1 (WEE1)
O=C1CCN(N2Cc3cc(CN4CC(n5cnc6cc(F)ccc65)C4)ccc3C2=O)C(=O)N1 [GT-07723, 1-(5-((3-(5-fluoro-1H-benzo[d]imidazol-1-yl)azetidin-1-yl)methyl)-1-oxoisoindolin-2-yl)dihydropyrimidine-2,4(1H,3H)-dione]	15 to 20%	5 to 10%						
Cc1nc(N2CCN(Cc3ccc4c(c3)C(=O)N(N3CCC(=O)NC3=O)C4=O)CC2)c2ccsc2n1 [GT-08100, 2-(2,4-dioxotetrahydropyrimidin-1(2H)-yl)-5-((4-(2-methylthieno[2,3-d]pyrimidin-4-yl)piperazin-1-yl)methyl)isoindoline-1,3-dione]	5 to 10%	10 to 15%						
O=C1CCN(N2C(=O)c3ccc(CN4CCN(c5ncnc6sc7c(c56)CCC7)CC4)cc3C2=O)C(=O)N1 [GT-08103, 5-((4-(6,7-dihydro-5H-cyclopenta[4,5]thieno[2,3-d]pyrimidin-4-yl)piperazin-1-yl)methyl)-2-(2,4-dioxotetrahydropyrimidin-1(2H)-yl)isoindoline-1,3-dione]	15 to 20%	15 to 20%	B (80%< substrate protein remaining %≤ 100%)	A (0% ≤ substrate protein remaining % ≤ 80%)	B (80%< substrate protein remaining %≤ 100%)	A (0% ≤ substrate protein remaining % ≤ 80%)	B (80%< substrate protein remaining %≤ 100%)	B (80%< substrate protein remaining %≤ 100%)
O=C1CCN(N2C(=O)c3ccc(CN4CCN(c5ncc6ccsc6n5)CC4)cc3C2=O)C(=O)N1 [GT-08105, 2-(2,4-dioxotetrahydropyrimidin-1(2H)-yl)-5-((4-(thieno[2,3-d]pyrimidin-2-yl)piperazin-1-yl)methyl)isoindoline-1,3-dione]	10 to 15%	10 to 15%	B (80%< substrate protein remaining %≤ 100%)	A (0% ≤ substrate protein remaining % ≤ 80%)	A (0% ≤ substrate protein remaining % ≤ 80%)	A (0% ≤ substrate protein remaining % ≤ 80%)	B (80%< substrate protein remaining %≤ 100%)	B (80%< substrate protein remaining %≤ 100%)
O=C1CCN(N2Cc3cc(CN4CCC(c5ncc6ccsc6n5)CC4)ccc3C2=O)C(=O)N1 [GT-08115, 1-(1-oxo-5-((4-(thieno[2,3-d]pyrimidin-2-yl)piperidin-1-yl)methyl)isoindolin-2-yl)dihydropyrimidine-2,4(1H,3H)-dione]	20 to 40%	15 to 20%	B (80%< substrate protein remaining %≤ 100%)	B (80%< substrate protein remaining %≤ 100%)	A (0% ≤ substrate protein remaining % ≤ 80%)	B (80%< substrate protein remaining %≤ 100%)	A (0% ≤ substrate protein remaining % ≤ 80%)	B (80%< substrate protein remaining %≤ 100%)
CC1(C)[C@@H]2CC[C@]1(CS(=O)(=O)NCc1ccc3c(c1)CN(N1CCC(=O)NC1=O)C3=O)C(=O)C2 [GT-08133, 1-((1R,4R)-7,7-dimethyl-2-oxobicyclo[2.2.1]heptan-1-yl)-N-((2-(2,4-dioxotetrahydropyrimidin-1(2H)-yl)-1-oxoisoindolin-5-yl)methyl)methanesulfonamide]	15 to 20%	20 to 40%						
O=C1CCN(N2C(=O)c3ccc(CN4CCC(c5ncnc6sc7c(c56)CCC7)CC4)cc3C2=O)C(=O)N1 [GT-08425, 5-((4-(6,7-dihydro-5H-cyclopenta[4,5]thieno[2,3-d]pyrimidin-4-yl)piperidin-1-yl)methyl)-2-(2,4-dioxotetrahydropyrimidin-1(2H)-yl)isoindoline-1,3-dione]	15 to 20%	5 to 10%						
Cc1nc(C2CCN(Cc3ccc4c(c3)C(=O)N(N3CCC(=O)NC3=O)C4=O)CC2)c2c3c(sc2n1)CCC3 [GT-08426, 2-(2,4-dioxotetrahydropyrimidin-1(2H)-yl)-5-((4-(2-methyl-6,7-dihydro-5H-cyclopenta[4,5]thieno[2,3-d]pyrimidin-4-yl)piperidin-1-yl)methyl)isoindoline-1,3-dione]	20 to 40%	20 to 40%						
CC(C)c1cc2c(C3=CCN(Cc4ccc5c(c4)C(=O)N(N4CCC(=O)NC4=O)C5=O)CC3)ncnc2s1 [GT-08429, 2-(2,4-dioxotetrahydropyrimidin-1(2H)-yl)-5-((4-(6-isopropylthieno[2,3-d]pyrimidin-4-yl)-3,6-dihydropyridin-1(2H)-yl)methyl)isoindoline-1,3-dione]	20 to 40%	20 to 40%						
O=C1CCN(N2C(=O)c3ccc(CN4CC=C(c5ncnc6scc(-c7ccccc7)c56)CC4)cc3C2=O)C(=O)N1 [GT-08431, 2-(2,4-dioxotetrahydropyrimidin-1(2H)-yl)-5-((4-(5-phenylthieno[2,3-d]pyrimidin-4-yl)-3,6-dihydropyridin-1(2H)-yl)methyl)isoindoline-1,3-dione]			B (80%< substrate protein remaining %≤ 100%)	A (0% ≤ substrate protein remaining % ≤ 80%)	B (80%< substrate protein remaining %≤ 100%)	B (80%< substrate protein remaining %≤ 100%)	B (80%< substrate protein remaining %≤ 100%)	A (0% ≤ substrate protein remaining % ≤ 80%)
Cc1nc(C2=CCN(Cc3ccc4c(c3)C(=O)N(N3CCC(=O)NC3=O)C4=O)CC2)c2c3c(sc2n1)CCC3 [GT-08435, 2-(2,4-dioxotetrahydropyrimidin-1(2H)-yl)-5-((4-(2-methyl-6,7-dihydro-5H-cyclopenta[4,5]thieno[2,3-d]pyrimidin-4-yl)-3,6-dihydropyridin-1(2H)-yl)methyl)isoindoline-1,3-dione]			A (0% ≤ substrate protein remaining % ≤ 80%)	B (80%< substrate protein remaining %≤ 100%)	A (0% ≤ substrate protein remaining % ≤ 80%)	A (0% ≤ substrate protein remaining % ≤ 80%)	B (80%< substrate protein remaining %≤ 100%)	A (0% ≤ substrate protein remaining % ≤ 80%)
O=C1CCN(N2Cc3cc(CN4CCN(c5nc(Cl)nc6ccsc56)CC4)ccc3C2=O)C(=O)N1 [GT-08444, 1-(5-((4-(2-chlorothieno[3,2-d]pyrimidin-4-yl)piperazin-1-yl)methyl)-1-oxoisoindolin-2-yl)dihydropyrimidine-2,4(1H,3H)-dione]			B (80%< substrate protein remaining %≤ 100%)	B (80%< substrate protein remaining %≤ 100%)	B (80%< substrate protein remaining %≤ 100%)	B (80%< substrate protein remaining %≤ 100%)	B (80%< substrate protein remaining %≤ 100%)	A (0% ≤ substrate protein remaining % ≤ 80%)
O=C1CCN(N2C(=O)c3ccc(CN4CCN(c5nc(N6CCOCC6)nc6c5SCC6)CC4)cc3C2=O)C(=O)N1 [GT-08450, 2-(2,4-dioxotetrahydropyrimidin-1(2H)-yl)-5-((4-(2-morpholino-6,7-dihydrothieno[3,2-d]pyrimidin-4-yl)piperazin-1-yl)methyl)isoindoline-1,3-dione]			B (80%< substrate protein remaining %≤ 100%)	B (80%< substrate protein remaining %≤ 100%)	A (0% ≤ substrate protein remaining % ≤ 80%)	B (80%< substrate protein remaining %≤ 100%)	B (80%< substrate protein remaining %≤ 100%)	B (80%< substrate protein remaining %≤ 100%)
O=C1CCN(N2C(=O)c3ccc(CN4CCN(c5nc(N6CCOCC6)c6sccc6n5)CC4)cc3C2=O)C(=O)N1 [GT-08456, 2-(2,4-dioxotetrahydropyrimidin-1(2H)-yl)-5-((4-(4-morpholinothieno[3,2-d]pyrimidin-2-yl)piperazin-1-yl)methyl)isoindoline-1,3-dione]	5 to 10%	20 to 40%						
O=C1CCN(N2Cc3cc(CN4CCN(c5nc(N6CCNCC6)c6sccc6n5)CC4)ccc3C2=O)C(=O)N1 [GT-08949, 1-(1-oxo-5-((4-(4-(piperazin-1-yl)thieno[3,2-d]pyrimidin-2-yl)piperazin-1-yl)methyl)isoindolin-2-yl)dihydropyrimidine-2,4(1H,3H)-dione]			B (80%< substrate protein remaining %≤ 100%)	B (80%< substrate protein remaining %≤ 100%)	A (0% ≤ substrate protein remaining % ≤ 80%)	B (80%< substrate protein remaining %≤ 100%)	B (80%< substrate protein remaining %≤ 100%)	B (80%< substrate protein remaining %≤ 100%)
